Values quoted from earlier work as cited in patent US9707259B2, “Magnetic diffusional patch” (METUAS MEDIKAL SAGLIK HIZ-METLERI DANISMANLIK IHRACAT …, priority 2011, dated 2017).

How the values were obtained:
[1] = tested on: activated human monocytes
[2] = tested on: thromboxane and leukotriene B4 synthesis
[3] = experimental animals, rheumatoid arthritis

| Compound | inflammation mediators [1] | effect on cyclooxygenase (COX) enzyme (cyclooxygenase (COX)) | levels of pro-inflammation cytokines TNF-alpha and interleukin (IL)-1beta (rheumatoid arthritis; [3]) | severity of the disease (rheumatoid arthritis; [3]) | induced arthritis with the aid of collagen (rheumatoid arthritis; experimental studies) | effect on lipooxygenase enzyme (lipooxygenase enzymes) | synthesis of thromboxane and leukotriene B4 from eicosanoids [2] |
| --- | --- | --- | --- | --- | --- | --- | --- |
| CC1=CCC(O)(C(C)C)CC1 (stereo not shown) [4-terpineol] | suppress |  |  |  |  |  |  |
| CC1=CC(=O)C(C(C)C)=CC1=O [thymoquinone] |  | blocks | reduction | decreases | able to suppress | blocks | inhibits |
